Laboratory results published in article PMC8080777, “Discovery, optimization, and evaluation of non-bile acid FXR/TGR5 dual agonists” (Scientific Reports, 2021).

Experiments:
FXR = target: T1, FXR (Homo sapiens, UniProt Q96RI1); experiment: CHO cell-based FXR luciferase reporter assay (Indigo Biosciences); conditions: for FXR Efficacy (%) (1 µM) / FXR Efficacy (%) (0.1 µM) / FXR Efficacy (%) (10 µM): % vs OCA 1 µM as 100%
T1 construct: host or cells: CHO cells
T1 sequence (Q96RI1 1-486): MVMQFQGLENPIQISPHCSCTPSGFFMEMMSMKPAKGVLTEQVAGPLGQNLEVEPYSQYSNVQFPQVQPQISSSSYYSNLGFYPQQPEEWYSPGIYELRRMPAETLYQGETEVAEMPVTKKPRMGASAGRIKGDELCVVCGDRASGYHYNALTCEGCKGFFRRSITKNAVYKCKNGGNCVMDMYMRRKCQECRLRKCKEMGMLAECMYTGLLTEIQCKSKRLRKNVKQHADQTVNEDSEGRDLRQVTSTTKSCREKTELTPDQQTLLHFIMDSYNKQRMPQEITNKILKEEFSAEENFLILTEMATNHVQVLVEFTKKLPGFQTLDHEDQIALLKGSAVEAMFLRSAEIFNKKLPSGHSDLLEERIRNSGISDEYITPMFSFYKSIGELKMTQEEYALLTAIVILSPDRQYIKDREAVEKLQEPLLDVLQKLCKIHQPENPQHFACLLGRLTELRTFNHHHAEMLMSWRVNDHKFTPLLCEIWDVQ
Procedure: To evaluate direct agonist activities against FXR, test compounds were evaluated using a CHO cell-based FXR assay by Indigo Biosciences (State College, PA), in which cells were transfected with an FXR luciferase reporter system.
To directly evaluate the in vitro agonist activity towards FXR, test compounds were evaluated in CHO cells transfected with FXR responsive luciferase reporter (Nuclear Receptor & In Vitro Toxicology Solutions, Indigo Biosciences, State College, PA, USA). […] Each compound was tested in duplicate, and the average value was reported[35],[36].
(§1) The cell recovery medium (CRM, Human Farnesoid X Receptor (NR1H4, FXR reporter assay system, Indigo Biosciences, State College, PA, USA) and compound screening medium (CSM, Human Farnesoid X Receptor (NR1H4, FXR reporter assay system, Indigo Biosciences, State College, PA, USA) were removed from the freezer and thawed in a water bath at 37 °C. Test compounds were dissolved in dimethyl sulfoxide (DMSO, FUJIFILM Wako Pure Chemical Corporation, Osaka city, Osaka, Japan), and the treatment medium was prepared and diluted with CSM to achieve a final concentration of 0.2% total DMSO. The reporter cells were thawed by transferring 3.3 mL CRM at 37 °C into tubes of frozen cells. The tube containing reporter cells was recapped, and it was immediately place in a 37 °C water bath for 5 min. The reporter cells were gently inverted several times, and 100 µL cell suspension was dispensed into each well. One hundred microliters of treatment media was added into wells. Subsequently, the assay plate was kept at 37 °C, and it was incubated with 5% CO2 for 22 h. To prepare luciferase detection reagent (LDR), the detection substrate was gently mixed with detection buffer, media contents were removed from each well, and 100 µL LDR was added to each well of the assay plate. The assay plate was allowed to rest at room temperature for 5 min, and luminescence was quantified using the Multi-Mode Microplate Reader (FlexStation 3, Molecular Devices Inc., San Jose, CA, USA)[36].
S4. In vitro, in vivo assay, and selectvity.
To directly evaluate the in vitro agonist activity towards FXR, test compounds were evaluated in CHO cells transfected with FXR responsive luciferase reporter (Nuclear Receptor & In Vitro Toxicology Solutions, Indigo Biosciences, State College, PA, USA). Cells were incubated with […]
(FlexStation 3, Molecular Devices Inc., San Jose, CA, USA). Efficacies are reported relative to […]
reporter on of 1 µM. Each compound was tested in duplicate, and the average value was […]
as §1, with “sulfoxide (DMSO ,” for “sulfoxide (DMSO,”, “Osaka, Jap an),” for “Osaka, Japan),”, “a 37°C” for “a 37 °C”, “5% CO 2” for “5% CO2”, “using […]” for “using the Multi-Mode Microplate Reader (FlexStation 3, Molecular Devices Inc., San Jose, CA, USA)[36].”

TGR5 = target: T2, TGR5 (Homo sapiens, UniProt Q8TDU6); experiment: TGR5 cAMP assay in CHO cells transfected with TGR5 (cAMP Hunter eXpress, Discover X); format: cell-based
T2 construct: host or cells: CHO cells
T2 sequence (Q8TDU6 1-330): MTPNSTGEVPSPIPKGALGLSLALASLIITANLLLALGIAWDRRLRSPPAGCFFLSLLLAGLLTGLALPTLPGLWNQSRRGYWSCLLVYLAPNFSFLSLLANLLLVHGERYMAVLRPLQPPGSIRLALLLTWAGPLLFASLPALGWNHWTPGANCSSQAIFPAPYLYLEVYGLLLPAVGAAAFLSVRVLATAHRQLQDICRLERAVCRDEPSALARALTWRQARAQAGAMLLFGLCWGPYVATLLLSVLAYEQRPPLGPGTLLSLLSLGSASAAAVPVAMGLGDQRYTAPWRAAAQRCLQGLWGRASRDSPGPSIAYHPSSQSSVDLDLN
Procedure: TGR5 agonist activity was evaluated by transfecting CHO cells with TGR5 using the Discover X expression kit (cAMP Hunter eXpress GPCR Assay, Discover X Fremont, CA). Cells were incubated with test compounds for 0.5 h, and intracellular cAMP levels were measured using the multi-mode microplate reader.
(§2) TGR5 agonist activity was evaluated by transfecting CHO cells with TGR5 using the Discover X expression kit (cAMP Hunter eXpress Assay Kit, Discover X Fremont, CA, USA). Cells were incubated with the test compounds for 0.5 h, and intracellular cAMP levels were measured using Multi-Mode Microplate Reader (FlexStation 3, Molecular Devices Inc., San Jose, CA, USA).
Each compound was tested at concentrations of 10, 1, or 0.1 µM in duplicate (n = 2), with the average value shown.
S4. In vitro, in vivo assay, and selectvity. […]
In vitro TGR5 agonist assay protocol
as §2
Each compound was tested at concentrations of 10, 1, or 0.1 µM in duplicate (n=2), with the […]
parameter logistic equation, Y = min + (max - min)/(1 + 10^(n * (log10(EC50) - log10(conc)))), in […]

| FXR agonist activity (in words) (FXR) | FXR Efficacy (%) (1 µM) (FXR) | TGR5 Efficacy (%) (10 µM) (TGR5; % vs INT-767 10 µM as 100%) | FXR Efficacy (%) (0.1 µM) (FXR) | TGR5 Efficacy (%) (1 µM) (TGR5; % vs INT-767 10 µM as 100%) | FXR Efficacy (%) (10 µM) (FXR) | TGR5 agonist activity (in words) (TGR5) | SMILES | TGR5 Efficacy (%) (0.1 µM) (TGR5; 0.1 µM, % vs INT-767 10 µM as 100%) |
| --- | --- | --- | --- | --- | --- | --- | --- | --- |
| high potency against FXR | 95.3% |  | 56.4% | 18.9% |  |  | Cc1cnccc1C(=O)N(CC12CCC(c3ccc(N(C)C)cc3)(CC1)CC2)c1cc(Cl)cc(Cl)c1 [Compound 20s] |  |
| partial FXR agonists | 90.3% | 28.8% |  |  | 64.3% | weak TGR5 agonist | COc1ccc(C23CCC(CN(C(=O)c4ccncc4C)c4cc(Cl)cc(Cl)c4)(CC2)CC3)cc1C [Compound 20f] |  |
|  | 77.3% |  | 32.8% | 25.0% |  |  | COc1cc(Cl)cc(N(CC23CCC(c4ccc(N(C)C)cc4)(CC2)CC3)C(=O)c2ccncc2C)c1 [Compound 20t] |  |
|  | 91.5% | 72.4% | 58.5% |  |  |  | Cc1cnccc1C(=O)N(CC12CCC(c3ccc4c(c3)CCO4)(CC1)CC2)c1cc(Cl)cc(Cl)c1 [Compound 20m] |  |
|  | 97.6% | 78.9% | 29.4% | 36.0% |  |  | COc1cc(Cl)cc(N(CC23CCC(c4ccc5c(c4)OCO5)(CC2)CC3)C(=O)c2ccncc2C)c1 [Compound 20o] |  |
|  | 79.6% |  | 65.4% | 33.5% |  |  | COc1ccc(C23CCC(CN(C(=O)c4ccncc4C)c4cc(Cl)cc(Cl)c4)(CC2)CC3)cc1Cl [Compound 20v] |  |
|  | 89.2% | 62.1% | 62.6% |  |  |  | COc1ccc(C23CCC(CN(C(=O)c4ccncc4C)c4cc(F)cc(Cl)c4)(CC2)CC3)cc1C [Compound 20i] |  |

Continued, compound first:

| SMILES | FXR agonist activity (in words) (FXR) | FXR Efficacy (%) (1 µM) (FXR) | TGR5 Efficacy (%) (10 µM) (TGR5; % vs INT-767 10 µM as 100%) | FXR Efficacy (%) (0.1 µM) (FXR) | TGR5 Efficacy (%) (1 µM) (TGR5; % vs INT-767 10 µM as 100%) | FXR Efficacy (%) (10 µM) (FXR) | TGR5 agonist activity (in words) (TGR5) | TGR5 Efficacy (%) (0.1 µM) (TGR5; 0.1 µM, % vs INT-767 10 µM as 100%) |
| --- | --- | --- | --- | --- | --- | --- | --- | --- |
| Cc1cnccc1C(=O)N(Cc1ccc(-c2ccc(N(C)C)cc2)cc1)c1cccc(-c2cnn(C(C)C)c2)c1F [Compound 13t] | strong FXR agonist activities | 92.6% | 8.3% |  |  |  |  |  |
| CN(C)c1ccc(-c2ccc(CN(C(=O)c3ccncc3C(F)(F)F)c3cc(Cl)cc(Cl)c3)cc2)cc1 [Compound 13z] |  | 10.6% | 24.4% |  |  |  |  |  |
| Cc1cc(F)ccc1N(Cc1ccc(-c2ccc(N(C)C)cc2)cc1)C(=O)c1ccncc1 [Compound 13f] |  | 0.5% | 32.0% |  |  |  |  |  |
| COC(=O)/C=C/c1cccc(N(Cc2ccc(-c3ccc(N(C)C)cc3)cc2)C(=O)c2ccncc2C)c1 [Compound 13a] | strong FXR agonist activity with full efficacy | 24.6% | -3.1% |  |  | 100.2% | inactive against TGR5 |  |
| CN(C)c1ccc(-c2ccc(CN(C(=O)c3ccncc3Cl)c3cc(Cl)cc(Cl)c3)cc2)cc1 [Compound 13x] |  | 62.1% | 9.8% |  |  |  |  |  |
| COC(=O)/C=C/c1cc(Cl)cc(N(Cc2ccc(-c3ccc(N(C)C)cc3)cc2)C(=O)c2ccncc2C)c1 [Compound 13m] |  | 72.5% | 6.7% |  |  |  |  |  |
| Cc1cnccc1C(=O)N(Cc1ccc(-c2ccc(N(C)C)cc2)cc1)c1cc(Cl)ccc1Cl [Compound 13q] |  | 1.5% | 75.2% |  |  |  | good potency against TGR5 |  |
| COC(=O)/C=C/c1cccc(N(Cc2ccc(-c3ccc(N(C)C)cc3)cc2)C(=O)c2ccncc2C)c1F [Compound 13u] | strong FXR agonist activities | 90.3% | -2.5% |  |  |  |  |  |
| Cc1cnccc1C(=O)N(Cc1ccc(-c2ccccc2)cc1)c1cc(Cl)cc(Cl)c1 [Compound 13ah] |  | 17.7% | 118.6% |  |  |  | TGR5 full agonist |  |
| Cc1cnccc1C(=O)N(Cc1ccc(-c2ccc(N(C)C)cc2)cc1)c1cccc(-c2cnn(C(C)C)c2)c1C [Compound 13s] | moderate FXR/TGR5 agonist activity | 61.0% | 24.1% |  |  |  | moderate FXR/TGR5 agonist activity |  |
| CN(C)c1ccc(-c2ccc(CN(C(=O)c3ccc(O)cc3Cl)c3cc(Cl)cc(Cl)c3)cc2)cc1 [Compound 13af] | strong FXR activities | 108.2% | -0.2% |  |  |  |  |  |
| COC(=O)/C=C/c1cccc(N(Cc2ccc(-c3ccc(N(C)C)cc3)cc2)C(=O)c2cccnc2)c1 [Compound 13c] |  |  | 1.7% |  |  | 68.1% |  |  |
| COC(=O)/C=C/c1cccc(N(Cc2ccc(-c3ccc(N(C)C)cc3)cc2)C(=O)c2ccccc2)c1 [Compound 13d] |  | 24.5% | 0.0% |  |  | 88.9% |  |  |
| Cc1cnccc1C(=O)N(Cc1ccc(-c2ccc(N(C)C)cc2)cc1)c1cc(Cl)cc(-c2cnn(C(C)C)c2)c1 [Compound 13o] |  | 68.8% | -1.5% |  |  |  |  |  |
| CCC1C(O)C2C3CCC(C(C)CCOS(=O)(=O)O)C3(C)CCC2C2(C)CCC(O)CC12 (stereo not shown) [INT-767, reference compound] |  |  | 100% |  | 25.5% |  |  | 1.7% |
